In article PMC8662641, “Site-Specific Labeling of Endogenous Proteins Using CoLDR Chemistry” (Journal of the American Chemical Society, 2021):
Where “and” joins values, the source holds several entries; their conditions need not be identical. Equal values may be shown once.

What was measured:
BTK-1h = target: T1, BTK-1h (Homo sapiens, UniProt Q06187); assay: High-throughput screening with 1h-labeled BTK; type: binding
T1 construct: The BTK kinase domain was diluted to 2 μM in the buffer, and 2 μM 1h was added; made in house
T1 sequence (Q06187 402-655): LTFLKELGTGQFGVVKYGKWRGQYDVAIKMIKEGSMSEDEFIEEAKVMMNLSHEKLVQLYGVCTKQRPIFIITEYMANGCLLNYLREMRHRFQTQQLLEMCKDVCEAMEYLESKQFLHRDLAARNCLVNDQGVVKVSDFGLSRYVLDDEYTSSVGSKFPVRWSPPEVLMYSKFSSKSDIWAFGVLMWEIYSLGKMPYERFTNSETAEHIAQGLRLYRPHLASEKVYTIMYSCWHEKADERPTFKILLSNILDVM
Procedure: The collection was composed of BTK binding compounds obtained in our previous luminescence screen[37] (Data set S2). […] The resulting BTK-1h (50 μL) was added to the inhibitors.

BTK = BTK (Homo sapiens, UniProt Q06187); parameters: BTK kinase domain was expressed and purified as previously reported; made in house; method as in Reddi et al., J. Am. Chem. Soc. 2021, 143 (13), 4979–4992; conditions: ref Reddi et al., J. Am. Chem. Soc. 2021, 143 (13), 4979–4992; cited from earlier work
Chain of BTK (Q06187 402-655 limits assumed): as the sequence (Q06187 402-655) above

[1] = Dataset S2A, 200 μM compound, BTK-1h, 32 °C, 10 min

FI (650)/FI (620) (BTK-1h; [1])	FI (BTK-1h)/FI (BTK-1h+Inhibitor) at 620 nm (BTK-1h; [1])	FI (650)/FI (620) (BTK-1h; Dataset S2C, BTK-1h with inhibitor)	SMILES	BTK Inhibition reported in luminescence assay* (BTK)
1.03	1.045		Cc1cc(Nc2cc(CN3CCOCC3)c3nc(C)c(Cc4ccc(Cl)cc4F)n3n2)n[nH]1 [PCM-0095222-002]	56.6
0.9282	1.039		C=CC(=O)Nc1ccc2ncnc(Nc3ccc(OCc4cccc(F)c4)c(Cl)c3)c2c1.Cc1ccc(S(=O)(=O)O)cc1 [PCM-0095229-002]	109.7
1.215	1.03		Cc1cc(Nc2nc(N[C@@H](C)c3ccc(F)cc3)c(C#N)cc2F)n[nH]1 [PCM-0095250-002]	99.3
1.3013	1.347		O=C(O)C1(Cc2cccc(Nc3nccs3)n2)CCC(Oc2cccc(Cl)c2F)CC1 (stereo not drawn) [PCM-0095334-002]	102.1
1.135	1.028		CN(c1ncccc1CNc1nc(Nc2ccc3c(c2)CC(=O)N3)ncc1C(F)(F)F)S(C)(=O)=O.O=S(=O)(O)c1ccccc1 [PCM-0095340-005]	84.8
0.8854	1.06		CC(C)(O)CC(=O)NCCn1ccc2ncnc(Nc3ccc(Oc4cccc(C(F)(F)F)c4)c(Cl)c3)c21 [PCM-0095364-002]	73.8
1.0001	1.041		COc1cc(NC(=O)c2ccc(-c3ccc(Cl)cc3)o2)cc(OC)c1 [PCM-0095366-002]	56.8
2.04	1.441		Cn1cc(-c2[nH]c3cc(NC(=O)[C@H](N)C4CCCCC4)cc4c3c2C=NNC4=O)cn1 [PCM-0095372-002]	111
1.034	1.021		Cc1ccccc1C(=O)Nc1ccc(C(=O)N2CCCC(N(C)C)c3ccccc32)cc1 (stereo not drawn) [PCM-0095424-002]	70
1.156	1.374		CNC(=O)c1cc(Oc2ccc(NC(=O)Nc3cc(C(C)(C)C)nn3-c3ccc4ncccc4c3)c(F)c2)ccn1 [PCM-0095514-002]	98.6
1.1262	1.0184		CC1=C(C(=O)OC(C)C)C(c2cccc([N+](=O)[O-])c2)C(C(=O)OC2CN(C(c3ccccc3)c3ccccc3)C2)=C(N)N1 (stereo not drawn) [PCM-0095544-002]	70
1.0597	1.03		O=C(/C=C/c1ccc(O)c(O)c1)c1ccc(O)cc1O [PCM-0095622-002]	55.2
1.023	1.009		Oc1ccc(Nc2nc(-c3ccc(Cl)cc3)cs2)cc1 [PCM-0095692-002]	84.8
1.264	1.088		CNCc1ccc(C)c(NC(=O)c2ccc(Nc3nc(-c4ccccc4)c4ccccc4n3)cc2)c1 [PCM-0095748-002]	79.5
1.083	1.262		O=C(O)c1ccc(C=C2SC(=S)N(c3cccc(C(F)(F)F)c3)C2=O)cc1 [PCM-0095759-002]	54.1
1.026	1.04		CN(CC(=O)N(Cc1ccc(C2CCCCC2)cc1)c1ccc(C(=O)O)cc1)S(=O)(=O)c1c(F)c(F)c(F)c(F)c1F [PCM-0095763-002]	68.7
1.233	0.999		O=C(O)c1ccc(N2C(=O)/C(=C/c3ccc(-c4ccc([N+](=O)[O-])cc4)o3)C=C2c2ccccc2)cc1 [PCM-0095764-003]	98.1
1.569	1.288		C=CC(=O)Nc1cccc(Nc2nc(Nc3ccc(OCCOC)cc3)ncc2F)c1 [PCM-0095787-002]	90.3

FI (650)/FI (620) (BTK-1h; [1])	FI (BTK-1h)/FI (BTK-1h+Inhibitor) at 620 nm (BTK-1h; [1])	FI (650)/FI (620) (BTK-1h; Dataset S2C, BTK-1h with inhibitor)	SMILES	BTK Inhibition reported in luminescence assay* (BTK)
0.8921	1.024		Cc1cc(C)nc(NS(=O)(=O)c2ccc(NC(=S)NC(=O)COc3ccc(Br)cc3Cl)cc2)n1 [PCM-0095801-002]	59.5
1.024	1.031		C#CC[C@H](c1nc2cc(Cl)ccc2c(=O)n1Nc1ccccc1)N(CCCN)C(=O)c1cccc(Cl)c1F [PCM-0095802-002]	52.5
2.739	1.077		CCOC(=O)c1ccc(N2NC(=O)/C(=C/c3ccc([N+](=O)[O-])o3)C2=O)cc1 [PCM-0095807-002]	64.9
0.9908	1.0756		Cc1nc(Nc2n[nH]c3c2CN(C(=O)N[C@H](CN(C)C)c2ccccc2)C3(C)C)c2sccc2n1 [PCM-0095819-002]	72.4
1.007	1.033		Cc1cnc(Nc2ccc(F)cc2Cl)nc1-c1c[nH]c(C(=O)N[C@H](CO)c2cccc(Cl)c2)c1 [PCM-0213398-002]	60
0.9167	1.042		CC(C)N1CCN(Cc2cnc(-c3cc(-c4cccc5[nH]ccc45)cc4[nH]ncc34)o2)CC1 [PCM-0213407-002]	51.7
2.745	2.341	2.341	CN(C)C/C=C/C(=O)Nc1ccc(C(=O)Nc2cccc(Nc3ncc(Cl)c(-c4c[nH]c5ccccc45)n3)c2)cc1 [PCM-0213464-002, THZ1 2HCl]	116.6
2.028	1.072		O=c1cc(-c2ccccc2)oc2cc(O)c(O)c(O)c12 [PCM-0214670-001]	79.4
1.235	1.093		Cc1cc(N2CCOCC2)cc2[nH]c(-c3c(NC[C@@H](O)c4cccc(Cl)c4)cc[nH]c3=O)nc12 [PCM-0214699-001]	109
1.754	1.03		COC(=O)C1=C(C)NC(C)=C(C(=O)O[C@@H]2CCCN(Cc3ccccc3)C2)[C@@H]1c1cccc([N+](=O)[O-])c1.Cl [PCM-0214706-001]	80.9
0.7711	1.012		COc1cccc2c1C(=O)c1c(O)c3c(c(O)c1C2=O)C[C@@](O)(C(=O)CO)C[C@@H]3O[C@H]1C[C@H](N)[C@H](O[C@@H]2CCCCO2)[C@H](C)O1 [PCM-0214749-001]	53.7
1.073 and 1.008	1.009 and 1.024		Cc1ccc(-n2[nH]c(C)c(N=Nc3cccc(-c4cccc(C(=O)O)c4)c3O)c2=O)cc1C [PCM-0214811-001]	80.2
	7.121		Cc1cc(-c2ccc(N=Nc3ccc4c(S(=O)(=O)[O-])cc(S(=O)(=O)[O-])c(N)c4c3O)c(C)c2)ccc1N=Nc1ccc2c(S(=O)(=O)[O-])cc(S(=O)(=O)[O-])c(N)c2c1O.[Na+].[Na+].[Na+].[Na+] [PCM-0214845-001]	125.3
0.9979	1.038		COC1=CC(=O)c2ccccc2C1=O [PCM-0214886-001]	85.6
0.8577	1.025		COC[C@H]1C[C@@H](c2ncc(-c3ccc4c(c3)COc3cc5c(ccc6[nH]c([C@@H]7CC[C@H](C)N7C(=O)[C@@H](NC(=O)OC)C(C)C)nc65)cc3-4)[nH]2)N(C(=O)[C@H](NC(=O)OC)c2ccccc2)C1 [PCM-0214920-001]	56
1.13	1.0065		CC1(C)C=Cc2c(ccc3c2OC[C@@H](c2ccc(O)cc2O)C3)O1 [PCM-0214974-001]	70.3
1.148	1.067		COc1nc2ccc(Br)cc2cc1[C@@H](c1ccccc1)[C@@](O)(CCN(C)C)c1cccc2ccccc12.O=C(O)/C=C/C(=O)O [PCM-0215093-001]	84
0.9923	1.053		COc1ccc2c(O[C@@H]3C[C@H]4C(=O)N[C@]5(C(=O)NS(=O)(=O)C6CC6)C[C@H]5/C=C\CCCCN(C)C(=O)[C@@H]4C3)cc(-c3nc(C(C)C)cs3)nc2c1C [PCM-0215097-001]	55.6

SMILES	FI (650)/FI (620) (BTK-1h; [1])	FI (BTK-1h)/FI (BTK-1h+Inhibitor) at 620 nm (BTK-1h; [1])	FI (650)/FI (620) (BTK-1h; Dataset S2C, BTK-1h with inhibitor)	BTK Inhibition reported in luminescence assay* (BTK)
CC1=C(O)C(=O)C=C2C1=CC=C1[C@@]2(C)CC[C@@]2(C)[C@@H]3C[C@](C)(C(=O)O)CC[C@]3(C)CC[C@]12C [PCM-0214611-001]	0.9422	1.014		67.7
